From US20060046968A1, “Prodrug substituted benzoxazoles as estrogenic agents” (priority 2004, published 2006)

Columns and labels:
Lewis rats = experiment: Lewis rat adjuvant-induced arthritis, inhibition protocol: joint score (maximal score per day 12); type: in vivo
Female Mongolian gerbils = experiment: Transient global ischemia in the Mongolian gerbil: neurogranin mRNA in hippocampus; type: in vivo; details: gerbil hippocampus after 5 min global ischemia; s.c. daily
Method: Transient global ischemia in the Mongolian gerbil. The effect of test compounds on preventing or treating brain injury in response to oxygen deprivation/reperfusion were measured using the following test procedure.
Female Mongolian gerbils (60-80 g; Charles River Laboratories, Kingston, N.Y.) were housed in the Wyeth-Ayerst animal care facility Association for Assessment and Acreditation of Laboratory Animal Care (AAALAC) certified with a 12-hour light, 12-hour dark photoperiod and free access to tap water and a low-estrogen casein diet (Purina®; Richmond, Ind.). After acclimation (3-5 days), gerbils were anesthetized with isoflurane (2-3% mixture with O2), ovariectomized (Day 0). […] On Day 6, gerbils (n=4-5/group) were anesthetized with isoflurane, the common carotid arteries visualized via a mid-line neck incision and both arteries simultaneously occluded for 5 minutes with non-traumatic micro aneurysm clips. […]
The degree of neuronal protection was evaluated by in situ hybridization analysis of neurogranin mRNA. […]
Neurogranin mRNA was selected for these studies because it is highly expressed in the hippocampal neurons including CA1, but absent in glia and other cell types present in this brain region. […] The results from 6 sections (40 μm apart) per animal were averaged and statistically evaluated. […]

Question: Which Joint inflammation score (Lewis rats; s.c. daily from Day 1, Day 1) does the source give for `C=Cc1cc(O)cc2nc(-c3ccc(O)c(F)c3)oc12` [Example 24, 2-(3-FLUORO-4-HYDROXYPH ENYL)-7-VI NYL-1,3-BENZOXAZOL-5-OL] here?
Answer: 0.00

Question: What about the Joint inflammation score (Lewis rats; s.c. daily from Day 1, Day 2) of the same compound?
Answer: 1.00

Question: What about the Joint inflammation score (Lewis rats; s.c. daily from Day 1, Day 3) of the same compound?
Answer: 4.50

Question: And the Joint inflammation score (Lewis rats; s.c. daily from Day 1, Day 4)?
Answer: 4.83

Question: What about the Joint inflammation score (Lewis rats; s.c. daily from Day 1, Day 5) of the same compound?
Answer: 5.83

Question: What about the Joint inflammation score (Lewis rats; s.c. daily from Day 1, Day 6) of the same compound?
Answer: 6.16

Question: What about the Joint inflammation score (Lewis rats; s.c. daily from Day 1, Day 7) of the same compound?
Answer: 6.16

Question: And the Joint inflammation score (Lewis rats; s.c. daily from Day 1, Day 8)?
Answer: 5.33

Question: And the Joint inflammation score (Lewis rats; s.c. daily from Day 1, Day 9)?
Answer: 5.66

Question: And the Joint inflammation score (Lewis rats; s.c. daily from Day 1, Day 10)?
Answer: 4.33

Question: And the Joint inflammation score (Lewis rats; s.c. daily from Day 1, Day 11)?
Answer: 3.16

Question: And the Joint inflammation score (Lewis rats; s.c. daily from Day 1, Day 12)?
Answer: 3.16

Question: What about the Joint inflammation score (Lewis rats; s.c. daily from Day 1, Day 13) of the same compound?
Answer: 2.16

Question: What about the Joint inflammation score (Lewis rats; s.c. daily from Day 1, Day 14) of the same compound?
Answer: 3.33

Question: What about the Joint inflammation score (Lewis rats; s.c. daily from Day 1, Day 15) of the same compound?
Answer: 3.00

Question: And the Joint inflammation score (Lewis rats; s.c. daily from Day 1, Day 16)?
Answer: 1.66

Question: And the Joint inflammation score (Lewis rats; s.c. daily from Day 1, Day 17)?
Answer: 1.50

Question: And the “Neurogranin mRNA (mean ± stdev)” value (Female Mongolian gerbils)?
Answer: 0.0 arbitrary units
